Values quoted from earlier work as cited in patent US20200367500A1, “MICROCAPSULES WITH BIOCIDES FOR THEIR INCORPORATION INTO REPELLENT AND/OR INSECTICIDE COATINGS” (priority 2019, published 2020).
Entries after “also recorded” stand apart in the source; their conditions may differ. Read-outs that look alike come from different tables or passages of the source.

Settings: for Decomposition time (Mean life): aqueous medium; for Stability in aqueous medium, in words: pH as stated in the value

SMILES	Stability in aqueous medium, in words	Decomposition time (Mean life) (pH 9)	other results
CCOP(=S)(OCC)Oc1nc(Cl)c(Cl)cc1Cl [Chlorpyrifos]	Stable in neutral and slightly	–	Decomposition time (Mean life) (pH 10): 7 days
CC1(C)C(C=C(Cl)Cl)C1C(=O)OC(C#N)c1cccc(Oc2ccccc2)c1 (centres unmarked) [Cypermethrin]	–	7 days	–
C=CCC1=C(C)C(OC(=O)C2C(C=C(C)C)C2(C)C)CC1=O [D-allethrin]	Stable at pH 5 after 31 days	(4.3 days)	Decomposition time (Mean life) (pH 7): 500 days
CC1(C)[C@H](C(=O)O[C@H](C#N)c2cccc(Oc3ccccc3)c2)[C@@H]1C=C(Br)Br [Deltamethrin]	more stable in medium acid solutions	–	Decomposition time (Mean life) (pH 7): 0.33 days
CCOP(=S)(OCC)Oc1cc(C)nc(C(C)C)n1 [Diazinon]	–	136 days	Decomposition time (Mean life) (pH 5): 31 days; Decomposition time (Mean life) (pH 7.5): 185 days
O=C(NC(=O)c1c(F)cccc1F)Nc1ccc(Cl)cc1 [Diflubenzuron]	Stable in a pH range from 5 to 7; also recorded: Hydrolyzed at pH 9	–	–
CCOC(=O)CC(SP(=S)(OC)OC)C(=O)OCC (centres unmarked) [Malathion]	Quickly hydrolyzed at pH over 7. The optimal pH	–	–
CC1(C)C(C=C(Cl)Cl)C1C(=O)OCc1cccc(Oc2ccccc2)c1 (centres unmarked) [Permethrin]	Stable at pH between 5 and 6.	–	–
CCN(CC)c1nc(C)cc(OP(=S)(OC)OC)n1 [Pirimiphos-methyl]	–	–	Decomposition time (Mean life) (pH 5): 7 days; Decomposition time (Mean life) (pH 8): 5 days
CC(COc1ccc(Oc2ccccc2)cc1)Oc1ccccn1 (centres unmarked) [Pyriproxifen]	Stable in pH between 4 and 9.	–	–
